From patent US5500430A, “Amidic derivatives of glutamic, aspartic and 2-amino adipic acids, a process for preparing same, and anti-gastrin composition containing the derivatives” (Rotta Research Laboratorium S.p.A., priority 1990, dated 1996)

Columns and labels:
[1] = system: gastric acid secretion induced by pentagastrin; test: Antisecretive activity in anaesthetised rats (pentagastrin-stimulated gastric acid secretion); type: in vivo; details: pentagastrin 30 mcg/Kg/h; for ED50: Rattus norvegicus, iv, anaesthetised male rats, I.V. bolus, IN with bound, read-out: Antagonistic activity (ID50) towards gastric acid secretion induced by pentagastrin; for Antigastrin activity (in words): anaesthetised rats
Procedure: Antisecretive activity in anaesthetised rats
Antisecretive activity in rats was determined with the use of male animals each weighing about 200 g, anaesthetised with urethane. Gastric secretion was stimulated with pentagastrin. The method of K. S. Lai (Gut 5, (1964), 327-341) was used, slightly modified.
After tracheotomy, cannulae were inserted in the oesophagus and the duodenum. A tepid solution. (37° C.) of 0.25 mM NaOH was perfused and passed through the stomach by means of a peristaltic pump at a constant flow rate of 1 ml/minute. After stabilisation for 20 minutes, the stimulating agent, dissolved in a physiological solution, was perfused for 120 minutes at a dose of 30 mcg/Kg/h in a volume of 0.95 ml/hour. After perfusion for 60 minutes (the basal stimulation), the product under test was administered as an intravenous bolus (I.V.) and the perfusion of the stimulant continued for a further 60 minutes. Acid secretion was recorded continuously as a function of time.
The activity of the product was evaluated as the percentage reduction in the secreted acidity after the administration of the product compared with the base acidity measured during the first 60 minutes of collection during which only the pentagastrin was present.
Different doses of the antagonist compounds tested were administered so that an ID50, that is, the dose (in mg/Kg I.V.) capable of inhibiting the effect of pentagastrin by 50%, could be calculated.
The results thus obtained are illustrated in the following table (Table 1) in which the activities of the compounds are expressed as the ID50s under the stimulus of 30 mcg/Kg/h of pentagastrin.

[2] = target: T1, gastrin receptor sites on the cerebral cortex membranes of mice (Mus musculus, UniProt P56481); test: Inhibition of the binding of pentagastrin to mouse cortical membranes; details: pentagastrin tritiate ligand, 40 minutes at 37° C.; read-out: IC50, inhibition of the binding of pentagastrin
T1 construct: Mouse cortical tissue; from tissue; host or cells: mouse cerebral cortex membranes
T1 sequence (P56481 1-453): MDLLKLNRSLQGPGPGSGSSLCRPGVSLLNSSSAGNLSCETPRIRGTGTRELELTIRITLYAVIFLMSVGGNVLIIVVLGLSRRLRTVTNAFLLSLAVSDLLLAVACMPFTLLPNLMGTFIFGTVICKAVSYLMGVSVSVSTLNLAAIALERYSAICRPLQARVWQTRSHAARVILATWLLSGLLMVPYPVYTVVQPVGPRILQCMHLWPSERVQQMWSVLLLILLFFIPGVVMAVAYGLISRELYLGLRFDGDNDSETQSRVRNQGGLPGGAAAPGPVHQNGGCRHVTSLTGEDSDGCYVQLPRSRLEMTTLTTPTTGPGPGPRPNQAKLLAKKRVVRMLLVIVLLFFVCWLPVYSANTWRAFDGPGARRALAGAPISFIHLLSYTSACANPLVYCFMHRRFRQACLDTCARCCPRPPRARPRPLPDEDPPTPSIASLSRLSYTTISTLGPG
Text: Tests on binding to cerebral cortex membranes of mice
The capacities of some of the compounds of the invention to inhibit the binding of pentagastrin to the gastrin receptor sites on the cerebral cortex membranes of mice was to be evaluated. Pentagastrin tritiate[beta-alanyl-3-3H(N)] was used as the ligand.
Mouse cortical tissue Was homogenised cold in 20 volumes of tris buffer (pH 7.7). After washing and centrifuging, the final pellet was resuspended in 20 volumes of binding buffer containing, inter alia, TRIS, BSA and Bacitracin. 0.4 ml of the membrane thus obtained were then incubated with a radioactive tracer and the compounds under test for 40 minutes at 37° C.
After the supernatant liquid had been removed by centrifuging, the radioactivity associated with the pellet was determined with a liquid scintillator (a beta-counter). The specific binding was the difference between the binding in the absence and in the presence of 10^-5M pentagastrin.

[3] = system: guinea-pig gall bladder contracted with CCK-8; test: Anticholecystokinin (anti-CCK) activity on guinea-pig gall bladders stimulated by CCK-8 in vitro; details: for Anti-CCK activity IC50: CCK-8 concentration 10 ng/ml, Krebs, 32° C.; for Antagonism of contracturant activity of CCK-8 relative to lorglumide (in words): vs lorglumide
Procedure: Anticholecystokinin (anti-cc, K) activity
In order to confirm the hypothesis that the molecular conformations of the compounds of the invention are suitable to provide them with antagonistic activity towards CCK as well as towards gastrin, the anticontracturant activities of some of the compounds of the invention were tested on guinea-pig gall bladders stimulated by CCK-8 in vitro.
A longitudinal strip of guinea-pig gall bladder was placed in a bath for isolated organs in the presence of Krebs at a temperature of 32° C. and oxygenated continuously with an oxygen-CO2 mixture (95-5 V/V).
The isometric contractions were detected by means of a force transducer and recorded.
The gall bladder was contracted with the use of a concentration of 10 ng/ml of CCK-8; the antagonistic activities of the compounds towards the contracturant effect of the CCK was determined with the use of different concentrations, thus determining the IC50 values, that is, the concentration of the compound in mcg/ml which can antagonise the contracturant effect of CCK by 50%.

Compound	ED50 [1]	also measured
O=C(O)CCC(NC(=O)c1cccc(Cl)c1)C(=O)N1CCC2(CC1)SCCS2 (racemic) [Compound D1, (R,S) (±)-4-[(3-chlorobenzoyl)amino]-5-(1.4-dithia-8-azaspiro[4.5]decan-8-yl)-5-oxopentanoic acid]	> 75 mg/kg	IC50 [2]: 2600 nM
O=C(O)CC[C@@H](NC(=O)c1cccc(Cl)c1)C(=O)N1CCC2(CCCCC2)CC1 [Compound C2]	33 mg/kg	Anti-CCK activity IC50 [3]: 4.9 µg/mL; IC50 [2]: 140 nM
O=C(O)CC[C@@H](NC(=O)c1cccc(Cl)c1)C(=O)N1CCC2(CCCC2)C1 [Compound C3]	75 mg/kg	Anti-CCK activity IC50 [3]: 43 µg/mL
O=C(O)CC[C@@H](NC(=O)c1cccc(Cl)c1)C(=O)N1CCC2(CCCCC2)C1 [Compound C4]	49 mg/kg	
O=C(O)CC[C@@H](NC(=O)c1cc(Cl)cc(Cl)c1)C(=O)N1CCC2(CCCCC2)C1 [Compound C6]	45 mg/kg	IC50 [2]: 320 nM
O=C(O)CC[C@@H](NC(=O)c1cc(Cl)cc(Cl)c1)C(=O)N1CCC2(CCCC2)C1 [Compound C7]	60 mg/kg	
O=C(O)CC[C@@H](NC(=O)c1cccc(Cl)c1Cl)C(=O)N1CCC2(CCCC2)CC1 [Compound C9]	40 mg/kg	
O=C(O)CC[C@@H](NC(=O)c1ccc2ccccc2c1)C(=O)N1CCC2(CCCC2)CC1 [Compound C10]	45 mg/kg	Anti-CCK activity IC50 [3]: 1.0 µg/mL; Antagonism of contracturant activity of CCK-8 relative to lorglumide (in words) [3]: at concentrations no greater than those shown by lorglumide; IC50 [2]: 100 nM
Cc1cccc(C(=O)N[C@H](CCC(=O)O)C(=O)N2CCC3(CCCC3)CC2)c1 [Compound C11]	38 mg/kg	
CCc1cccc(C(=O)N[C@H](CCC(=O)O)C(=O)N2CCC3(CCCC3)CC2)c1 [Compound C12]	38 mg/kg	
Cc1cc(C)cc(C(=O)N[C@H](CCC(=O)O)C(=O)N2CCC3(CCCC3)CC2)c1 [Compound C13]	33 mg/kg	
O=C(O)CC[C@@H](NC(=O)c1cccc([N+](=O)[O-])c1)C(=O)N1CCC2(CCCC2)CC1 [Compound C14]	68 mg/kg	IC50 [2]: 8100 nM
COc1cccc(C(=O)N[C@H](CCC(=O)O)C(=O)N2CCC3(CCCC3)CC2)c1 [Compound C15]	46 mg/kg	
N#Cc1cccc(C(=O)N[C@H](CCC(=O)O)C(=O)N2CCC3(CCCC3)CC2)c1 [Compound C16]	66 mg/kg	
O=C(O)CC[C@@H](NC(=O)c1cccc(C(F)(F)F)c1)C(=O)N1CCC2(CCCC2)CC1 [Compound C17]	55 mg/kg	
CC(C)c1ccc(C(=O)N[C@H](CCC(=O)O)C(=O)N2CCC3(CCCC3)CC2)cc1 [Compound C18]	28 mg/kg	
O=C(O)CC[C@@H](NC(=O)c1cnc2ccccc2c1)C(=O)N1CCC2(CCCC2)CC1 [Compound C19]	68 mg/kg	Anti-CCK activity IC50 [3]: 1.5 µg/mL; Antagonism of contracturant activity of CCK-8 relative to lorglumide (in words) [3]: at concentrations no greater than those shown by lorglumide
O=C(O)CC[C@@H](NC(=O)c1ccc(Cl)c(Cl)c1)C(=O)N1CCC2(CCCCC2)CC1 [Compound C20]	64 mg/kg	Anti-CCK activity IC50 [3]: 0.5 µg/mL; Antagonism of contracturant activity of CCK-8 relative to lorglumide (in words) [3]: at concentrations no greater than those shown by lorglumide

Compound	ED50 [1]	also measured
O=C(O)CC[C@@H](NC(=O)c1cnc2ccccc2c1)C(=O)N1CCC2(CCCCC2)CC1 [Compound C21]	> 75 mg/kg	Anti-CCK activity IC50 [3]: 0.2 µg/mL; Antagonism of contracturant activity of CCK-8 relative to lorglumide (in words) [3]: at concentrations no greater than those shown by lorglumide; IC50 [2]: 510 nM
O=C(O)CC[C@@H](NC(=O)c1cccc(Cl)c1)C(=O)NC1CCC2(CCCCC2)CC1 [Compound C22]	55 mg/kg	
O=C(O)CC[C@@H](NC(=O)c1cc(Cl)cc(Cl)c1)C(=O)NC1CCC2(CCCCC2)CC1 [Compound C23]	40 mg/kg	IC50 [2]: 320 nM
O=C(O)CC[C@@H](NC(=O)c1ccco1)C(=O)N1CCC2(CCCC2)CC1 [Compound C24]	> 75 mg/kg	
O=C(O)CC[C@@H](NC(=O)c1cccnc1Cl)C(=O)N1CCC2(CCCC2)CC1 [Compound C25]	69 mg/kg	
O=C(O)CC[C@@H](NC(=O)c1cc2ccccc2[nH]1)C(=O)N1CCC2(CCCC2)CC1 [Compound C26]	> 75 mg/kg	
O=C(O)CC[C@@H](NC(=O)c1cccc(Cl)c1)C(=O)N1CCC2(CC1)OCCO2 [Compound C27]	81 mg/kg	
O=C(O)CC[C@@H](NC(=O)c1cc(Cl)cc(Cl)c1)C(=O)N1CCC2(CC1)OCCO2 [Compound C28]	70 mg/kg	
O=C(O)CC[C@@H](NC(=O)c1cccc(Cl)c1)C(=O)N1CCC2CCCCC2C1 (stereo partly drawn) [Compound C29]	35 mg/kg	Anti-CCK activity IC50 [3]: 234 µg/mL; IC50 [2]: 800 nM
O=C(O)CC[C@@H](NC(=O)c1cc(Cl)cc(Cl)c1)C(=O)NCCC12CC3CC(CC(C3)C1)C2 [Compound C31]	20 mg/kg	Antigastrin activity (in words) [1]: particularly favourable
O=C(O)CC[C@H](NC(=O)c1cccc(Cl)c1)C(=O)N1CCC2(CCCC2)CC1 [Compound C32]	> 100 mg/kg	Antigastrin activity (in words) [1]: completely inactive up to a dose of 100 mg/Kg; IC50 [2]: 26000 nM
O=C(O)CCC(NC(=O)c1cccc(Cl)c1)C(=O)N1CCC2(CC1)OCCS2 (stereo not drawn) [Compound D3]	67 mg/kg	
O=C(O)CCCC(NC(=O)c1cccc(Cl)c1)C(=O)N1CCC2(CCCC2)CC1 (stereo not drawn) [Compound D5]	32 mg/kg	IC50 [2]: 1500 nM
O=C(O)CCC(NC(=O)c1cccc(Cl)c1)C(=O)NC1CCC2CCCCC2C1 (stereo not drawn) [Compound D6]	60 mg/kg	
O=C(O)CCC(NC(=O)c1cc(Cl)cc(Cl)c1)C(=O)NC1CCC2CCCCC2C1 (stereo not drawn) [Compound D7]	48 mg/kg	
CCCCCN(CCCCC)C(=O)C(CCC(=O)O)NC(=O)c1ccc(Cl)c(Cl)c1 (stereo not drawn) [Lorglumide, lorglumide, reference compound]	> 100 mg/kg	Anti-CCK activity IC50 [3]: 0.06 µg/mL; Antigastrin activity (in words) [1]: completely inactive up to a dose of 100 mg/Kg
CCCN(CCC)C(=O)C(CCC(=O)O)NC(=O)c1ccccc1 (stereo not drawn) [Proglumide, proglumide, reference compound]	500 mg/kg	
